# In patent US20060281088A1, “Markers for lxr activation” (priority 2003, published 2006):
# Legend:
# THP1 macrophages [1] = assay: Gene expression measurement by Taqman quantitative RT-PCR in THP1 macrophages; assay type: cell-based, human; settings: result in words
# From the text: Three oligonucleotides are used: a forward primer, a reverse primer, and a probe. All of them are specific for the target and are able to bind to it. The TaqMan assay uses a probe technology that exploits 5′→3′-nuclease activity of an enzyme, the most commonly used being Taq polymerase. The assay efficiency is largely dependent on this 5′→3′ nuclease activity. In this regard one should be careful in choosing a suitable polymerase. […] The probe is an oligonucleotide with a reporter dye at the 5′ end and a quencher dye at the 3′ end. The fluorescent reporter dye is attached covalently to the 5′ end and can be FAM (6-carboxyfluorescein), TET (tetrachloro-6-carboxyfluorescein), JOE (2,7-dimethoxy-4,5-dichloro-6-carboxyfluorescein), HEX (hexacholoro-6-carboxyfluorescein), or VIC. The reporter is quenched by TAMRA (6-carboxytetramethylrhodamine), bound to the 3′ end by a linker arm. […] An advantage of using DABCYL in the TaqMan probes is its reduced autofluorescence compared with TAMRA When the probe is intact the quencher dye absorbs the fluorescence of the reporter dye due to the proximity between both. […] By the 5′-exonuclease activity of the Taq:polymerase the probe is hydrolyzed and the reporter dye is separated from the quencher, resulting in an increase in fluorescence emission. […]
# THP1 macrophages [2] = assay: Gene expression measurement by Gene Chip Microarray in THP1 macrophages; assay type: cell-based, human; settings: Gene Chip Microarray analysis, result in words
# Method: Cells were incubated at 37° C. and 5.2% CO2. For experimental treatments, cells were seeded at a density of 1×10^6/ml in 6-well plates in medium containing 100 nM phorbol 12-myristate 13-acetate (PMA) for 72 hours to fully differentiate them into adherent macrophages. The medium was then replaced by culture medium containing PMA with vehicle (DMSO) or test compound for 6 or 24 hours prior to harvesting. Total RNA was isolated using the TriZol reagent (Life Technologies) or the RNeasy mini kit (Qiagen) according to the manufacturer's protocols. To remove contaminating DNA, the samples were treated with RNAse free DNAse (GibCo).
# Synthesis of first and second strand cDNA were performed using the SuperScript Choice Gene Chip Kit (Life Technologies) and reagents from Gibco. The double stranded cDNA, containing an incorporated T7 RNA polymerase binding site, was purified by extraction with a mix of phenol:chloroform:isoamylalcohol (Life Technologies). The organic and aqueous phases were separated by Phase Lock Gel (Eppendorf) and double-stranded cDNA was recovered by precipitation according to the manufacturer's protocol and then resuspended in water.
# The double-stranded cDNA was converted to biotin-labeled cRNA by in vitro transcription (IVT) using a T7 kit (Ambion) and biotin-containing ribonucleotides (Enzo-LOXO GmbH). […]
smiles,measurement,setting,value
O=S(=O)(c1ccccc1)N(CC(F)(F)F)c1ccc(C(O)(C(F)(F)F)C(F)(F)F)cc1 [T0901317],"Gene expression changes for ABCA1, ABCG1, APOC1, APOE, ASM3A, CDC42EP4, CXCR4, FASN, LDLR, NR1H3, VLDLR",THP1 macrophages [1],robust and significant increase in expression
same,"Gene expression changes of the listed marker genes (ABCA1, ABCG1, APOC1, APOE, ASM3A, C3F, CDC42EP4, CXCR4 ... PRKCI)",THP1 macrophages [2],strong induction
